# Experimental data as given in patent US20100130603A1, “MEDICAMENT FOR PROPHYLACTIC AND THERAPEUTIC TREATMENT OF DERMATOSIS RESULTING FROM EXCESSIVELY ADVANCED KERATINIZATION” (KYOTO UNIVERSITY, priority 2007, published 2010).
# Tests used:
# Serca2 gene = assay: Serca2 mRNA induction in normal human epidermal keratinocytes (NHEK), Northern blotting; format: cell-based; conditions: for strength of Serca2 gene inducing action: comparison among inducers
# Experimental: Normal human epidermal keratinocytes (NHEK) were cultured in a serum-free medium (KGM medium) from which only hydrocortisone was excluded. A test substance dissolved in dimethyl sulfoxide (DMSO) as a solvent was added to the medium and culture was continued, and amount of mRNA of Serca2 gene in the epidermal keratinocytes was quantified by Northern blotting after 3, 6, and 9 hours. […] RNA was extracted 0, 3, 6, 12, 18, 24, and 48 hours after the addition of WiN55,212-2 to the epidermal keratinocytes, and expression of Serca2 gene was observed by Northern blotting.
# Test substances including various kinds of vanilloid agonists were examined in the same manner as that of Example 1.
# [1] = test system: skin samples of healthy persons; assay: Pathological changes by HE staining in skin samples of healthy persons under organ culture; format: cell-based; conditions: healthy human skin organ culture, optimum concentration, fixed after 24 to 48 hours
# Experimental: Optimum concentrations of dihomo-γ-linolenoyldopamine, WIN55,212-2, DPTHF as a vanilloid antagonist, and DMSO (control) were each added to skin samples of healthy persons and kept under a state of organ culture in the same manner as in Example 3. The skin samples were fixed after 24 to 48 hours, and pathological changes were observed by HE staining.
# ATP2A protein [2] = assay: ATP2A protein localization by immunostaining in skins of healthy persons transplanted to nude mice; format: in vivo; conditions: healthy human skin on nude mice, optimum concentration applied every day for 5 days
# Source text: Skins of healthy persons were transplanted to nude mice, and after one week under acceptance of graft, optimum concentrations of dihomo-γ-linolenoyldopamine, WIN55,212-2, DPTHF as a vanilloid antagonist, and DMSO (control) were each applied every day for 5 days. The skin samples where the application was made were fixed after biopsy, and localization of ATP2A protein was identified by immunostaining.
# ATP2A2 mRNA = ATP2A2 mRNA expression in epidermal keratinocytes of Darier's disease patients, Northern blotting; format: cell-based, human; conditions: keratinocyte cell lines of 3 Darier's disease patients, 6 hours after treatment, 10^−6 to 10^−9 mol
# Experimental: Epidermal keratinocytes were collected from skins of pathological lesions of 3 Darier's disease patients, and cultured to establish cell lines. The cells were treated with WIN55,212-2 or a vanilloid agonist (dihomo-γ-linolenoyldopamine or eicosa-11Z,14Z-dienoyldopamine), and after 6 hours, RNAs were extracted and the expression of ATP2A2 mRNA was observed by Northern blotting. […] When the epidermal keratinocytes of the other two Darie's disease patients were used, similar results were obtained.
# [3] = test system: skin samples of Darie's disease patients; assay: Pathological examination of skin of Darie's disease patients transplanted to nude mice, applied 9 days; format: in vivo, human skin transplanted to nude mice; conditions: Darie's disease patient skin on nude mice, applied for 9 days in DMSO
# Experimental: Skin samples of Darie's disease patients with an area of 1 to 2 cm square were transplanted to nude mice, and acceptance of graft was confirmed after 7 days. Thereafter WIN55,212-2 or dihomo-γ-linolenoyldopamine was applied for 5 to 9 days using dimethyl sulfoxide (DMSO) as a solvent, and effectiveness of the drugs was determined on the basis of pathological examinations. This method is effective for successful determination of efficacy of a drug under a condition closest to the affected patient's skin. […] Where a solvent (DMSO) was applied as the control, dyskeratosis, parakeratosis, and blistering remained, the granular layer remained disappeared, and pathological pictures of Darie's disease were observed even after the transplantation. It is considered that the medicament of the present invention has sufficient effectiveness on inflammatory keratosis such as psoriasis vulgaris, as well as on Darie's disease, because potent therapeutic effect that achieves successful recover of even the formation of normal granular layer was observed when the cannabinoid agonist was applied.
# [4] = test system: three-dimensionally cultured skin model of Darie's disease patients' keratinocytes; assay: Darie's disease model skin by three-dimensional culture; format: cell-based, human; conditions: added to the medium; keratinocytes with fibroblasts or interstitial components; 5 to 11 days
# Experimental: In order to construct a model skin of Darie's disease which is readily reproducible and can be repetitively applied for assays, a […] model skin was constructed by three-dimensional culture of a combination of cultured epidermal keratinocytes and fibroblasts of Darie's disease patients, or three-dimensional culture of a combination of cultured epidermal keratinocytes Darie's disease patients and interstitial components. WIN55,212-2 or dihomo-γ-linolenoyldopamine was added to the medium of the above model skin to confirm the actions thereof. […] With the DMSO treatment as a control, individual keratinization and acantholysis remained, and pathological conditions corresponding to the pathological pictures of Darie's disease were observed.
# [5] = test system: skin samples of Darie's disease patients; assay: Pathological changes by HE staining in skin of Darie's disease patients transplanted to nude mice, applied 5 days; format: in vivo, human skin transplanted to nude mice; conditions: Darie's disease patient skin on nude mice, optimum concentration applied every day for 5 days
# Source text: Skin samples of Darie's disease patients were collected under informed consent of the patients, and transplanted to nude mice, and after one week under acceptance of graft, optimum concentrations of dihomo-γ-linolenoyldopamine, WIN55,212-2, and DMSO (control) were each applied to the skin samples every day for 5 days. The skins where the application was made were fixed after biopsy, and pathological changes were observed by HE staining.
# ATP2A protein [6] = assay: ATP2A protein localization by immunostaining in human skin under organ culture; format: cell-based; conditions: optimum concentration, fixed after 24 hours
# Experimental: Human skin under a state of organ culture was added with optimum concentration of dihomo-γ-linolenoyldopamine or DMSO (control), and after 24 hours later, the skin was fixed, and then localization of ATP2A protein, which is the causative protein of Darie's disease, was identified by immunostaining.
# [7] = vanilloid agonists, same manner as Example 1
# [8] = synthetic cannabinoid agonists in DMSO, Northern blotting after 3, 6 and 9 hours
compound,measurement,setting,value
"NCCOB(c1ccccc1)c1ccccc1 [2-aminoethoxydiphenyl borate (2-APB), 2-aminoethoxydiphenyl borate]",induction of Serca2 gene (mRNA),Serca2 gene; [7],induced the Serca2 gene
"CCCCCCCCCC(=O)O[C@@H]1[C@@H](C)[C@@]2(O)[C@@H](C=C(CO)C[C@@]3(O)C(=O)C(C)=C[C@@H]23)[C@@H]2C(C)(C)[C@]12OC(=O)CCCCCCCCC [4-α-phorbol 12,13-didecanoate (4α-PDD), 4-α-phorbol 12,13-didecanoate]",induction of Serca2 gene (mRNA),Serca2 gene; [7],induced the Serca2 gene
COc1ccc2c(c1)c(CC(=O)N1CCOCC1)c(C)n2C(=O)c1ccc(Cl)cc1 [BML-190],induction of Serca2 gene (mRNA),Serca2 gene; [8],induction of Serca2 gene was induced
"c1ccc(C2(c3ccccc3)CCCO2)cc1 [DPTHF, diphenyltetrahydrofuran]",pathological changes by HE staining,[1],pathological images similar to those of Darie's disease such as individual keratinization and acantholysis were observed
same,localization/expression of ATP2A protein by immunostaining,ATP2A protein [2],decrease of expression of ATP2A2 was observed
same,inducing action of vanilloid agonists on Serca2 gene expression when the vanilloid antagonist coexisted,Serca2 gene; coexisting with vanilloid agonists (FIG. 7: dihomo-γ-linolenoyldopamine+DPTHF),disappeared
"Cc1c(C(=O)c2cccc3ccccc23)c2cccc3c2n1[C@H](CN1CCOCC1)CO3 [WIN55,212-2]",pathological changes by HE staining,[1],remained in a state of physiological skin not distinguishable from healthy skins
same,localization/expression of ATP2A protein by immunostaining,ATP2A protein [2],excessively advanced expression in the basal layer was observed
same,expression of ATP2A2 mRNA,ATP2A2 mRNA,concentration-dependent promotion of expression of ATP2A2 was observed
same,pathological pictures (effectiveness by pathological examination),[3],"dyskeratosis, parakeratosis, and blistering were disappeared, and normal keratinization was observed with recovered granular layer"
same,pathological pictures in three-dimensional model skin,[4],recovery of three-dimensional skin having quality similar to that of healthy skin was observed
same,induction of Serca2 gene (mRNA),Serca2 gene; [8],induction of Serca2 gene was induced
same,pathological changes by HE staining,[5],these pathological changes characteristic to Darie's disease disappeared
CCCCC/C=C\C/C=C\C/C=C\CCCCCCC(=O)NCCc1ccc(O)c(O)c1 [dihomo-γ-linolenoyldopamine],pathological changes by HE staining,[1],remained in a state of physiological skin not distinguishable from healthy skins
same,localization/expression of ATP2A protein by immunostaining,ATP2A protein [2],excessively advanced expression in the basal layer was observed
same,localization/expression of ATP2A protein by immunostaining,ATP2A protein [6],excessively advanced expression in the basal layer was observed
same,expression of ATP2A2 mRNA,ATP2A2 mRNA,concentration-dependent promotion of expression of ATP2A2 was observed
same,pathological pictures (effectiveness by pathological examination),[3],"dyskeratosis and blistering disappeared, and the granular layer also slightly recovered, but keratinization accompanied by parakeratosis slightly remained"
same,pathological pictures in three-dimensional model skin,[4],recovery of three-dimensional skin having quality similar to that of healthy skin was observed
same,strength of Serca2 gene inducing action,Serca2 gene; vanilloid agonists,potent inducing action
same,induction of Serca2 gene (mRNA),Serca2 gene; [7],induced the Serca2 gene
same,pathological changes by HE staining,[5],these pathological changes characteristic to Darie's disease disappeared
CC/C=C\C/C=C\C/C=C\C/C=C\C/C=C\C/C=C\CCC(=O)NCCc1ccc(O)c(O)c1 [docosahexaenoyldopamine],induction of Serca2 gene (mRNA),Serca2 gene; [7],induced the Serca2 gene
"CCCCC/C=C\C/C=C\C/C=C\C/C=C\CCCCCC(=O)NCCc1ccc(O)c(O)c1 [docosatetra-7Z,10Z,13Z,16Z-enoyldopamine]",induction of Serca2 gene (mRNA),Serca2 gene; [7],induced the Serca2 gene
"CCCCC/C=C\C/C=C\CCCCCCCCCC(=O)NCCc1ccc(O)c(O)c1 [eicosa-11Z,14Z-dienoyldopamine]",expression of ATP2A2 mRNA,ATP2A2 mRNA,concentration-dependent promotion of expression of ATP2A2 was observed
same,strength of Serca2 gene inducing action,Serca2 gene; vanilloid agonists,potent inducing action
same,induction of Serca2 gene (mRNA),Serca2 gene; [7],induced the Serca2 gene
CC/C=C\C/C=C\C/C=C\C/C=C\C/C=C\CCCC(=O)NCCc1ccc(O)c(O)c1 [eicosapentaenoyldopamine],induction of Serca2 gene (mRNA),Serca2 gene; [7],induced the Serca2 gene
CCCCC/C=C\C/C=C\C/C=C\C/C=C\CCCC(=O)N[C@H](C)CO [methanandamide],induction of Serca2 gene (mRNA),Serca2 gene; [8],induction of Serca2 gene was induced
CCCCC/C=C\C/C=C\C/C=C\CCCCC(=O)NCCc1ccc(O)c(O)c1 [γ-linolenoyldopamine],strength of Serca2 gene inducing action,Serca2 gene; vanilloid agonists,potent inducing action
same,induction of Serca2 gene (mRNA),Serca2 gene; [7],induced the Serca2 gene
